Laboratory results: the NIST ThermoML archive (doi:10.1021/je049671t)

Assay: xn = mol fraction of the nth substance listed
Conditions: Liquid, Vibrating tube method

CC(C)C [2-methylpropane] + CCCC
Conditions	mass density [kg/m3]
300 K, 5514.6 kPa, x2 = 0.25	564.1
300 K, 5950.5 kPa, x2 = 0.75	574.92
300 K, 5960.3 kPa, x2 = 0.5	570.04
300 K, 6036.6 kPa, x2 = 0.25	565.05
300 K, 6473.1 kPa, x2 = 0.75	575.78
300 K, 6498 kPa, x2 = 0.25	565.9
300 K, 6511.5 kPa, x2 = 0.5	571.01
300 K, 7001.6 kPa, x2 = 0.25	566.76
300 K, 7003.6 kPa, x2 = 0.5	571.85
300 K, 7005.5 kPa, x2 = 0.75	576.66
320 K, 978.9 kPa, x2 = 0.5	535.28
320 K, 1008.4 kPa, x2 = 0.75	541.4
320 K, 1010.3 kPa, x2 = 0.25	529.04
320 K, 1496.2 kPa, x2 = 0.25	530.4
320 K, 1506.1 kPa, x2 = 0.75	542.64
320 K, 1594.1 kPa, x2 = 0.5	536.89
320 K, 2006 kPa, x2 = 0.75	543.82
320 K, 2007.9 kPa, x2 = 0.5	537.95
320 K, 2013.6 kPa, x2 = 0.25	531.82
320 K, 2503.8 kPa, x2 = 0.75	545.03
320 K, 2511 kPa, x2 = 0.25	533.15
320 K, 2513.8 kPa, x2 = 0.5	539.22
320 K, 2989.3 kPa, x2 = 0.25	534.4
320 K, 2990.8 kPa, x2 = 0.75	546.14
320 K, 3020.8 kPa, x2 = 0.5	540.47
320 K, 3465.4 kPa, x2 = 0.5	541.53
320 K, 3504.2 kPa, x2 = 0.25	535.74
320 K, 3510.6 kPa, x2 = 0.75	547.3
320 K, 3972.8 kPa, x2 = 0.5	542.72
320 K, 3986.7 kPa, x2 = 0.75	548.41
320 K, 4006.4 kPa, x2 = 0.25	537
320 K, 4485.3 kPa, x2 = 0.25	538.17
320 K, 4492.1 kPa, x2 = 0.5	543.94
320 K, 4515.1 kPa, x2 = 0.75	549.56
320 K, 4992.4 kPa, x2 = 0.5	545.07
320 K, 4997.8 kPa, x2 = 0.75	550.6
320 K, 4998.1 kPa, x2 = 0.25	539.39
320 K, 5465.3 kPa, x2 = 0.5	546.12
320 K, 5506.3 kPa, x2 = 0.25	540.6
320 K, 5508.2 kPa, x2 = 0.75	551.69
320 K, 5970.9 kPa, x2 = 0.25	541.67
320 K, 5971.8 kPa, x2 = 0.5	547.22
320 K, 6015.9 kPa, x2 = 0.75	552.74
320 K, 6462.7 kPa, x2 = 0.5	548.28
320 K, 6488.4 kPa, x2 = 0.75	553.71
320 K, 6514.9 kPa, x2 = 0.25	542.91
320 K, 7034.9 kPa, x2 = 0.25	544.07
320 K, 7065.7 kPa, x2 = 0.75	554.85
320 K, 7093.8 kPa, x2 = 0.5	549.62
340 K, 998.6 kPa, x2 = 0.5	506.59
340 K, 1008.5 kPa, x2 = 0.75	513.55
340 K, 1505.9 kPa, x2 = 0.75	515.25
340 K, 1510 kPa, x2 = 0.25	501.39
340 K, 1561.3 kPa, x2 = 0.5	508.67
340 K, 2003.4 kPa, x2 = 0.25	503.24
340 K, 2008.5 kPa, x2 = 0.5	510.27
340 K, 2020.5 kPa, x2 = 0.75	516.97
340 K, 2495.8 kPa, x2 = 0.25	505.08
340 K, 2500.9 kPa, x2 = 0.75	518.54
340 K, 2527.9 kPa, x2 = 0.5	512.06
340 K, 3001.4 kPa, x2 = 0.5	513.65
340 K, 3005.7 kPa, x2 = 0.75	520.07
340 K, 3009.8 kPa, x2 = 0.25	506.91
340 K, 3499.6 kPa, x2 = 0.75	521.61
340 K, 3512.9 kPa, x2 = 0.25	508.67
340 K, 3521.9 kPa, x2 = 0.5	515.35
340 K, 4004.8 kPa, x2 = 0.25	510.31
340 K, 4004.8 kPa, x2 = 0.75	523.11
340 K, 4042.3 kPa, x2 = 0.5	516.97
340 K, 4496.4 kPa, x2 = 0.75	524.53
340 K, 4508.6 kPa, x2 = 0.25	511.95
340 K, 4526.2 kPa, x2 = 0.5	518.46
340 K, 4981.3 kPa, x2 = 0.25	513.47
340 K, 4988.5 kPa, x2 = 0.5	519.84
340 K, 4990.6 kPa, x2 = 0.75	525.87
340 K, 5500.3 kPa, x2 = 0.25	515.08
340 K, 5502 kPa, x2 = 0.5	521.34
340 K, 5515.9 kPa, x2 = 0.75	527.37
340 K, 5973.6 kPa, x2 = 0.75	528.61
340 K, 5999.1 kPa, x2 = 0.25	516.58
340 K, 6016.6 kPa, x2 = 0.5	522.8
340 K, 6476.8 kPa, x2 = 0.5	524.07
340 K, 6496.3 kPa, x2 = 0.75	529.99
340 K, 6508.8 kPa, x2 = 0.25	518.07
340 K, 7019.3 kPa, x2 = 0.75	531.33
340 K, 7019.9 kPa, x2 = 0.25	519.55
340 K, 7084.7 kPa, x2 = 0.5	525.72
360 K, 1517.1 kPa, x2 = 0.75	483.05
360 K, 1517.3 kPa, x2 = 0.5	475.07
360 K, 1523.6 kPa, x2 = 0.25	466.34
360 K, 1975.7 kPa, x2 = 0.25	469.15
360 K, 1976.3 kPa, x2 = 0.75	485.36
360 K, 2018.5 kPa, x2 = 0.5	477.84
360 K, 2482.6 kPa, x2 = 0.25	472.1
360 K, 2496 kPa, x2 = 0.75	487.85
360 K, 2525 kPa, x2 = 0.5	480.5
360 K, 2961.3 kPa, x2 = 0.75	489.97
360 K, 3005.9 kPa, x2 = 0.5	482.91
360 K, 3010.1 kPa, x2 = 0.25	474.99
360 K, 3489.3 kPa, x2 = 0.75	492.24
360 K, 3507.7 kPa, x2 = 0.25	477.58
360 K, 3511.2 kPa, x2 = 0.5	485.28
360 K, 3977.2 kPa, x2 = 0.75	494.26
360 K, 4007.3 kPa, x2 = 0.25	480.03
360 K, 4019.1 kPa, x2 = 0.5	487.57
360 K, 4443.6 kPa, x2 = 0.75	496.16
360 K, 4493 kPa, x2 = 0.25	482.35
360 K, 4510.2 kPa, x2 = 0.5	489.71
360 K, 4948.8 kPa, x2 = 0.75	498.12
360 K, 5010.2 kPa, x2 = 0.25	484.66
360 K, 5018.9 kPa, x2 = 0.5	491.8
360 K, 5499.8 kPa, x2 = 0.75	500.18
360 K, 5503.6 kPa, x2 = 0.25	486.78
360 K, 5508.6 kPa, x2 = 0.5	493.77
360 K, 5964.2 kPa, x2 = 0.75	501.91
360 K, 6002.5 kPa, x2 = 0.25	488.86
360 K, 6019.4 kPa, x2 = 0.5	495.75
360 K, 6484.4 kPa, x2 = 0.75	503.73
360 K, 6497.2 kPa, x2 = 0.25	490.83
360 K, 6511.4 kPa, x2 = 0.5	497.56
360 K, 7022.1 kPa, x2 = 0.5	499.47
360 K, 7041 kPa, x2 = 0.25	492.93
360 K, 7073.3 kPa, x2 = 0.75	505.68
380 K, 1992.3 kPa, x2 = 0.75	445.43
380 K, 2496.5 kPa, x2 = 0.25	428.54
380 K, 2506.6 kPa, x2 = 0.5	440.41
380 K, 2519.3 kPa, x2 = 0.75	449.94
380 K, 3005 kPa, x2 = 0.5	444.82
380 K, 3007.8 kPa, x2 = 0.25	433.95
380 K, 3014.5 kPa, x2 = 0.75	453.77
380 K, 3482.8 kPa, x2 = 0.75	457.09
380 K, 3498.2 kPa, x2 = 0.25	438.53
380 K, 3519 kPa, x2 = 0.5	448.92
380 K, 4000 kPa, x2 = 0.25	442.76
380 K, 4015.3 kPa, x2 = 0.5	452.56
380 K, 4022 kPa, x2 = 0.75	460.64
380 K, 4463.2 kPa, x2 = 0.25	446.33
380 K, 4476.8 kPa, x2 = 0.75	463.44
380 K, 4521.7 kPa, x2 = 0.5	456
380 K, 4994 kPa, x2 = 0.75	466.44
380 K, 5001.3 kPa, x2 = 0.5	459.04
380 K, 5004.6 kPa, x2 = 0.25	450.19
380 K, 5481.2 kPa, x2 = 0.25	453.35
380 K, 5504.5 kPa, x2 = 0.75	469.24
380 K, 5511.6 kPa, x2 = 0.5	462.08
380 K, 5986.7 kPa, x2 = 0.25	456.5
380 K, 5998.4 kPa, x2 = 0.75	471.8
380 K, 6010.6 kPa, x2 = 0.5	464.88
380 K, 6475.4 kPa, x2 = 0.75	474.16
380 K, 6476.8 kPa, x2 = 0.25	459.36
380 K, 6505.2 kPa, x2 = 0.5	467.52
380 K, 6967.5 kPa, x2 = 0.75	476.48
380 K, 6981.4 kPa, x2 = 0.5	469.94
380 K, 7003.2 kPa, x2 = 0.25	462.28

mass density [kg/m3]
Conditions	300 K	320 K	340 K	360 K	380 K
x2 = 0.25	553.87	527.89	499.35	–	424.73
x2 = 0.5	559.44	534.14	506.18	474.18	435.21
x2 = 0.75	564.78	540.17	512.91	481.73	445.14
